According to patent US20220098203A1 (priority 2018, published 2022):
Like-named read-outs stand apart in the source and are kept apart here.

Biological target: T1, MAT2A homodimer (Homo sapiens, UniProt P31153)
T1 construct: inferred from the Ni sepharose purification and imidazole elution; made in house; host or cells: SF9 insect cells, recombinant baculovirus (Bac to Bac, pFASTBAC1)
Assay: MAT2A biochemical assay (liberated phosphate, PiColorLock Gold)
Details: Table 5a, read-out: Enzyme Inhibition
Description: Mat2A protein was expressed by recombinant baculovirus in SF9 infected cells using the Bac to Bac system cloned into the pFASTBAC1 vector (Invitrogen, Carlsbad, Calif.). Recombinant MAT2A was isolated from the cell lysate of 150 g of infected cells using HP Ni sepharose column chromatography. Recombinant MAT2A homodimer was eluted with 250 and 500 mM imidazole, and fractions containing MAT2A were identified by sodium dodecyl sulfate polyacrylamide gel electrophoresis and pooled.
Test compound was prepared in 100% dimethyl sulfoxide (DMSO) at 50× the desired final concentration. A 1 μL volume of compound dilution was added to 40 μL of enzyme dilution and the mixture was allowed to equilibrate for 60 minutes at 25° C. The enzymatic assay was initiated by the addition of 10 μL of substrate mix (500 μM ATP, pH 7.0, 400 μM L-methionine in 1× assay buffer), and the mixture was incubated for a further 60 minutes at 25° C. The reaction was halted and the liberated phosphate released by the enzyme in stoichiometric amounts by the production of S-adenosyl methionine (SAM) was measured using the PiColorLock Gold kit (Innova Biosciences, UK). Absolute product amounts were determined by comparison to a standard curve of potassium phosphate buffer, pH 8.0.

T1 sequence (P31153 whole entry): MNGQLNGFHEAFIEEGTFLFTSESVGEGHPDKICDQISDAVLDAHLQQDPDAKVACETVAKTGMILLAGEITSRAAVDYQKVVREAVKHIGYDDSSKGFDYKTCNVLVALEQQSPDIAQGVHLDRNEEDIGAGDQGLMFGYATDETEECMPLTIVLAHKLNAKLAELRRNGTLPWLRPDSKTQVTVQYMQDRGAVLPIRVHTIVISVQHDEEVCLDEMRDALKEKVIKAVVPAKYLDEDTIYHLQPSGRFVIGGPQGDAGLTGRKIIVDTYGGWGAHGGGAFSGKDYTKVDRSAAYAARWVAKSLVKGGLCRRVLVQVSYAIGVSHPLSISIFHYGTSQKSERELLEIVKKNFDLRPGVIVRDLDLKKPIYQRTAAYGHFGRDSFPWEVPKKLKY

| IC50 (MAT2A biochemical assay) [µM] | IC50 (given as a bound, not a class symbol) [µM] | SMILES |
| --- | --- | --- |
| 0.1 to 1 | – | COc1ccc(N2Cc3cnc(NCC(F)(F)F)nc3N(c3ccc(O)cc3)C2=O)cc1 [Example 249, 1-(4-hydroxyphenyl)-3-(4-methoxyphenyl)-7-((2,2,2-trifluoroethyl)amino)-3,4-dihydropyrimido[4,5-d]pyrimidin-2(1H)-one] |
| 1 to 10 | – | COc1ccc(N2Cc3cnc(NCC(F)(F)F)nc3N(c3ccc(C#N)cc3)C2=O)cc1 [Example 251, 4-(3-(4-methoxyphenyl)-2-oxo-7-((2,2,2-trifluoroethyl)amino)-3,4-dihydropyrimido[4,5-d]pyrimidin-1(2H)-yl)benzonitrile] |
| 0.1 to 1 | – | COc1ccc(N2Cc3cnc(NCC(F)(F)F)nc3N(c3ccc4c(c3)CCO4)C2=O)cc1 [Example 253, 1-(2,3-dihydrobenzofuran-5-yl)-3-(4-methoxyphenyl)-7-((2,2,2-trifluoroethyl)amino)-3,4-dihydropyrimido[4,5-d]pyrimidin2(1H)-one] |
| 0.1 to 1 | – | COc1ccc(N2Cc3cnc(NCC(F)(F)F)nc3N(c3ccc4sccc4c3)C2=O)cc1 [Example 254, 1-(benzo[b]thiophen-5-yl)-3-(4-methoxyphenyl)-7-((2,2,2-trifluoroethyl)amino)-3,4-dihydropyrimido[4,5-d]pyrimidin2(1H)-one] |
| 0.1 to 1 | – | COc1ccc(N2Cc3cnc(NCC(F)(F)F)nc3N(c3ccc(OC(F)(F)F)cc3)C2=O)cc1 [Example 256, 3-(4-methoxyphenyl)-7-((2,2,2-trifluoroethyl)amino)-1-(4-(trifluoromethoxy)phenyl)-3,4-dihydropyrimido[4,5-d]pyrimidin-2(1H)-one] |
| 0.1 to 1 | – | COc1ccc(N2Cc3cnc(NCC(F)(F)F)nc3N(c3ccc(OC)cn3)C2=O)cc1 [Example 257, 3-(4-Methoxyphenyl)-1-(5-methoxypyridin-2-yl)-7-(2,2,2-trifluoroethylamino)-3,4-dihydropyrimido[4,5-d]pyrimidin-2(1H)-one] |
| 0.1 to 1 | – | COc1ccc(N2Cc3cnc(NCC(F)(F)F)nc3N([C@H]3CC[C@H](OC)CC3)C2=O)cc1 [Example 258] |
| 0.1 to 1 | – | COc1ccc(N2Cc3cnc(NCC(F)(F)F)nc3N(c3ccc(OC(F)F)nc3)C2=O)cc1 [Example 259] |
| 1 to 10 | – | COc1ccc(N2Cc3cnc(NCC(F)(F)F)nc3N(c3ccc4nccn4c3)C2=O)cc1 [Example 260] |
| 0.1 to 1 | – | COc1ccc(-n2c(=O)c3cnc(NCC(F)(F)F)nc3n(-c3ccc(O)cc3)c2=O)cc1 [Example 262, 1-(4-hydroxyphenyl)-3-(4-methoxyphenyl)-7-((2,2,2-trifluoroethyl)amino)pyrimido[4,5-d]pyrimidine-2,4(1H,3H)-dione] |
| < 0.1 | – | Cn1cc2cc(N3Cc4cnc(NCC(F)(F)F)nc4N(c4ccc(Cl)cc4)C3=O)ccc2n1 [Example 263, 1-(4-chlorophenyl)-3-(2-methyl-2H-indazol-5-yl)-7-((2,2,2-trifluoroethyl)amino)-3,4-dihydropyrimido[4,5-d]pyrimidin-2(1H)-one] |
| 1 to 10 | – | COc1ccc(N2Cc3cnc(NCC4CC4)nc3N(c3ccc(O)cc3)C2=O)cc1 [Example 265] |
| 1 to 10 | – | COc1ccc(N2Cc3cnc(NCC4CC4)nc3N(c3ccncc3)C2=O)cc1 [Example 266] |
| 0.1 to 1 | – | COc1ccc(N2Cc3cnc(NCC4CC4)nc3N(c3ccc(OC)cc3)C2=O)cc1 [Example 267] |
| 0.1 to 1 | – | COc1ccc(N2Cc3cnc(NCC(F)(F)F)nc3N(c3ccc(C(N)=O)cc3)C2=O)cc1 [Example 276, 4-(3-(4-methoxyphenyl)-2-oxo-7-((2,2,2-trifluoroethyl)amino)-3,4-dihydropyrimido[4,5-d]pyrimidin-1(2H)-yl)benzamide] |
| 1 to 10 | – | CNC(=O)c1ccc(N2C(=O)N(c3ccc(OC)cc3)Cc3cnc(NCC(F)(F)F)nc32)cc1 [Example 277, 4-(3-(4-methoxyphenyl)-2-oxo-7-((2,2,2-trifluoroethyl)amino)-3,4-dihydropyrimido[4,5-d]pyrimidin-1(2H)-yl)-N-methylbenzamide] |
| 0.1 to 1 | – | COc1ccc(N2Cc3cnc(NCC(F)(F)F)nc3N(c3ccc(C4(O)CC4)cc3)C2=O)cc1 [Example 278, 1-(4-(1-hydroxycyclopropyl)phenyl)-3-(4-methoxyphenyl)-7-((2,2,2-trifluoroethyl)amino)-3,4-dihydropyrimido[4,5-d]pyrimidin-2(1H)-one] |
| 0.1 to 1 | – | COc1ccc(N2Cc3cnc(NCC(F)(F)F)nc3N(c3ccc(-c4ccc[nH]c4=O)cc3)C2=O)cc1 [Example 279, 3-(4-methoxyphenyl)-1-(4-(2-oxo-1,2-dihydropyridin-3-yl)phenyl)-7-((2,2,2-trifluoroethyl)amino)-3,4-dihydropyrimido[4,5-d]pyrimidin-2(1H)-one] |
| 0.1 to 1 | – | COc1ccc(N2Cc3cnc(NCC(F)(F)F)nc3N(c3ccc(-c4cc[nH]c4)cc3)C2=O)cc1 [Example 280, 1-(4-(1H-pyrrol-3-yl)phenyl)-3-(4-methoxyphenyl)-7-((2,2,2-trifluoroethyl)amino)-3,4-dihydropyrimido[4,5-d]pyrimidin-2(1H)-one] |
| 0.1 to 1 | – | COc1ccc(N2Cc3cnc(NCC(F)(F)F)nc3N(c3ccc(C4CC4O)cc3)C2=O)cc1 (centres unmarked) [Example 281, 1-(4-(2-hydroxycyclopropyl)phenyl)-3-(4-methoxyphenyl)-7-((2,2,2-trifluoroethyl)amino)-3,4-dihydropyrimido[4,5-d]pyrimidin-2(1H)-one] |
| 0.1 to 1 | – | Cn1cc2cc(N3Cc4cc(Cl)c(OCC(F)F)cc4N(c4ccc(OC(F)F)cc4)C3=O)ccc2n1 [Example 284, 6-chloro-7-(2,2-difluoroethoxy)-1-(4-(difluoromethoxy)phenyl)-3-(2-methyl-2H-indazol-5-yl)-3,4-dihydroquinazolin-2(1H)-one] |
| 0.1 to 1 | – | [2H]C([2H])([2H])Oc1ccc(N2C(=O)N(c3ccc4nn(C)cc4c3)C(C)c3ccc(OCC(F)F)nc32)cc1 (centres unmarked) [Example 286, 7-(2,2-difluoroethoxy)-1-(4-(methoxy-d3)phenyl)-4-methyl-3-(2-methyl-2H-indazol-5-yl)-3,4-dihydropyrido[2,3-d]pyrimidin-2(1H)-one] |
| 1 to 10 | – | CCOc1cc2c(nn1)CN(c1ccc3nn(C)cc3c1)C(=O)N2c1ccc(OC(F)F)cc1 [Example 292, 5-(4-(difluoromethoxy)phenyl)-3-ethoxy-7-(2-methyl-2H-indazol-5-yl)-7,8-dihydropyrimido[5,4-c]pyridazin-6(5H)-one] |
| 0.1 to 1 | – | Cn1cc2cc(N3Cc4nnc(NCC(F)(F)F)cc4N(c4ccc(OC(F)F)cc4)C3=O)ccc2n1 [Example 293] |
| 0.1 to 1 | – | CCOc1cc2c(cn1)CN(c1ccc3nn(C)cc3c1)C(=O)N2c1ccc(Cl)cc1 [Example 418, 1-(4-chlorophenyl)-7-ethoxy-3-(2-methyl-2H-indazol-5-yl)-3,4-dihydropyrido[4,3-d]pyrimidin-2(1H)-one] |
| 1 to 10 | – | COC1CCC(N2C(=O)N(c3ccc4nn(C)cc4c3)Cc3ccc(OCC(F)F)nc32)CC1 (centres unmarked) [Example 427, 7-(2,2-difluoroethoxy)-1-(4-methoxycyclohexyl)-3-(2-methyl-2H-indazol-5-yl)-1H,2H,3H,4H-pyrido[2,3-d]pyrimidin-2-one] |
| < 0.1 | – | Cc1ccc(N2C(=O)N(c3ccc4nn(C)cc4c3)Cc3cnc(NCC(F)(F)F)nc32)cn1 [Example 433, 3-(2-methyl-2H-indazol-5-yl)-1-(6-methylpyridin-3-yl)-7-((2,2,2-trifluoroethyl)amino)-3,4-dihydropyrimido[4,5-d]pyrimidin-2(1H)-one] |
| < 0.1 | – | [2H]C([2H])([2H])Oc1ccc(N2C(=O)N(c3ccc4nc(C)n(C)c4c3)Cc3c(C)nc(NCC(F)(F)F)nc32)cc1 [Example 435, 3-(1,2-dimethyl-1H-benzo[d]imidazol-6-yl)-1-(4-(methoxy-d3)phenyl)-5-methyl-7-((2,2,2-trifluoroethyl)amino)-3,4-dihydropyrimido[4,5-d]pyrimidin-2(1H)-one] |
| – | > 10 | CCOc1ccc(N2C(=O)N(c3ccc4nn(C)cc4c3)Cc3nnc(OCC)cc32)cc1 [Example 438] |
